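Tested at 5 concentrations; 48 h exposure; 96-well plates; endpoints linearly interpolated, else capped at highest concentration. GI50 = concentration required for 50% inhibition of growth. At the TGI there is no net growth.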
Tests used:
Assay in all cases: DTP human tumour cell line panel, 48 h
786-0 renal = tested on: 786-0 renal
A498 renal = tested on: A498 renal
A549 NSCLC = tested on: A549 NSCLC
ACHN renal = tested on: ACHN renal
BT-549 breast = tested on: BT-549 breast
CAKI-1 renal = tested on: CAKI-1 renal
CCRF-CEM leukemia = tested on: CCRF-CEM leukemia
COLO 205 colon = tested on: COLO 205 colon
DU-145 prostate = tested on: DU-145 prostate
HCC-2998 colon = tested on: HCC-2998 colon
HCT-116 colon = tested on: HCT-116 colon
HCT-15 colon = tested on: HCT-15 colon
HL-60(TB) leukemia = tested on: HL-60(TB) leukemia
HOP-62 NSCLC = tested on: HOP-62 NSCLC
HOP-92 NSCLC = tested on: HOP-92 NSCLC
HS 578T breast = tested on: HS 578T breast
HT29 colon = tested on: HT29 colon
IGROV1 ovarian = tested on: IGROV1 ovarian
K-562 leukemia = tested on: K-562 leukemia
KM12 colon = tested on: KM12 colon
LOX IMVI melanoma = tested on: LOX IMVI melanoma
M14 melanoma = tested on: M14 melanoma
MALME-3M melanoma = tested on: MALME-3M melanoma
MCF7 breast = tested on: MCF7 breast
MDA-MB-231 breast = tested on: MDA-MB-231 breast
MDA-MB-435 = tested on: MDA-MB-435
MOLT-4 leukemia = tested on: MOLT-4 leukemia
NCI-H226 lung = tested on: NCI-H226 lung
NCI-H23 lung = tested on: NCI-H23 lung
NCI-H460 lung = tested on: NCI-H460 lung
NCI-H522 lung = tested on: NCI-H522 lung
NCI/ADR-RES ovarian = tested on: NCI/ADR-RES ovarian
OVCAR-3 ovarian = tested on: OVCAR-3 ovarian
OVCAR-4 ovarian = tested on: OVCAR-4 ovarian
OVCAR-5 ovarian = tested on: OVCAR-5 ovarian
OVCAR-8 ovarian = tested on: OVCAR-8 ovarian
PC-3 prostate = tested on: PC-3 prostate
RPMI-8226 leukemia = tested on: RPMI-8226 leukemia
RXF 393 renal = tested on: RXF 393 renal
SF-268 CNS = tested on: SF-268 CNS
SF-539 CNS = tested on: SF-539 CNS
SK-MEL-2 melanoma = tested on: SK-MEL-2 melanoma
SK-MEL-28 melanoma = tested on: SK-MEL-28 melanoma
SK-MEL-5 melanoma = tested on: SK-MEL-5 melanoma
SK-OV-3 ovarian = tested on: SK-OV-3 ovarian
SN12C renal = tested on: SN12C renal
SNB-19 CNS = tested on: SNB-19 CNS
SNB-75 CNS = tested on: SNB-75 CNS
SR leukemia = tested on: SR leukemia
SW-620 colon = tested on: SW-620 colon
T-47D breast = tested on: T-47D breast
TK-10 renal = tested on: TK-10 renal
U251 CNS = tested on: U251 CNS
UACC-257 melanoma = tested on: UACC-257 melanoma
UACC-62 melanoma = tested on: UACC-62 melanoma
UO-31 renal = tested on: UO-31 renal

O=C1/C(=C\c2ccccc2)CN(C(=O)c2ccccc2)C/C1=C\c1ccccc1
GI50 (786-0 renal): 2 µM
TGI (786-0 renal): 4.44 µM
GI50 (A498 renal): 13 µM
TGI (A498 renal): 27.4 µM
GI50 (A549 NSCLC): 3.63 µM
TGI (A549 NSCLC): 16.3 µM
GI50 (ACHN renal): 1.73 µM
TGI (ACHN renal): 3.33 µM
GI50 (BT-549 breast): 1.86 µM
TGI (BT-549 breast): 3.58 µM
GI50 (CAKI-1 renal): 2.74 µM
TGI (CAKI-1 renal): 11.1 µM
GI50 (CCRF-CEM leukemia): 1.43 µM
TGI (CCRF-CEM leukemia): 6.49 µM
GI50 (COLO 205 colon): 2.72 µM
TGI (COLO 205 colon): 7.01 µM
GI50 (DU-145 prostate): 5.02 µM
TGI (DU-145 prostate): 16.4 µM
GI50 (HCC-2998 colon): 1.89 µM
TGI (HCC-2998 colon): 3.48 µM
GI50 (HCT-116 colon): 0.321 µM
TGI (HCT-116 colon): 1.1 µM
GI50 (HCT-15 colon): 2.02 µM
TGI (HCT-15 colon): 5.9 µM
GI50 (HL-60(TB) leukemia): 4.29 µM
TGI (HL-60(TB) leukemia): 52.7 µM
GI50 (HOP-62 NSCLC): 3.21 µM
TGI (HOP-62 NSCLC): 10.7 µM
GI50 (HOP-92 NSCLC): 3.28 µM
TGI (HOP-92 NSCLC): 21 µM
GI50 (HS 578T breast): 2.31 µM
TGI (HS 578T breast): 7.21 µM
GI50 (HT29 colon): 1.91 µM
TGI (HT29 colon): 4.09 µM
GI50 (IGROV1 ovarian): 2.66 µM
TGI (IGROV1 ovarian): 6.57 µM
GI50 (K-562 leukemia): 1.67 µM
TGI (K-562 leukemia): > 100 µM
GI50 (KM12 colon): 1.79 µM
TGI (KM12 colon): 3.4 µM
GI50 (LOX IMVI melanoma): 1.38 µM
TGI (LOX IMVI melanoma): 2.89 µM
GI50 (M14 melanoma): 2.1 µM
TGI (M14 melanoma): 4.79 µM
GI50 (MALME-3M melanoma): 2.96 µM
TGI (MALME-3M melanoma): 7.17 µM
GI50 (MCF7 breast): 0.39 µM
TGI (MCF7 breast): 1.69 µM
GI50 (MDA-MB-231 breast): 2.2 µM
TGI (MDA-MB-231 breast): 5.02 µM
GI50 (MDA-MB-435): 1.61 µM
TGI (MDA-MB-435): 5 µM
GI50 (MOLT-4 leukemia): 3.19 µM
TGI (MOLT-4 leukemia): 43.6 µM
GI50 (NCI-H226 lung): 19.3 µM
TGI (NCI-H226 lung): > 100 µM
GI50 (NCI-H23 lung): 3.62 µM
TGI (NCI-H23 lung): 12.4 µM
GI50 (NCI-H460 lung): 2.8 µM
TGI (NCI-H460 lung): 8.48 µM
GI50 (NCI-H522 lung): 2.29 µM
TGI (NCI-H522 lung): 5.27 µM
GI50 (NCI/ADR-RES ovarian): 3.69 µM
TGI (NCI/ADR-RES ovarian): 37.6 µM
GI50 (OVCAR-3 ovarian): 2.69 µM
TGI (OVCAR-3 ovarian): 6.34 µM
GI50 (OVCAR-4 ovarian): 2.98 µM
TGI (OVCAR-4 ovarian): 11.4 µM
GI50 (OVCAR-5 ovarian): 2.24 µM
TGI (OVCAR-5 ovarian): 6.83 µM
GI50 (OVCAR-8 ovarian): 2.96 µM
TGI (OVCAR-8 ovarian): 11.1 µM
GI50 (PC-3 prostate): 2.27 µM
TGI (PC-3 prostate): 7.86 µM
GI50 (RPMI-8226 leukemia): 0.238 µM
TGI (RPMI-8226 leukemia): 0.747 µM
GI50 (RXF 393 renal): 1.68 µM
TGI (RXF 393 renal): 3.21 µM
GI50 (SF-268 CNS): 3.4 µM
TGI (SF-268 CNS): 14.8 µM
GI50 (SF-539 CNS): 2.27 µM
TGI (SF-539 CNS): 6.24 µM
GI50 (SK-MEL-2 melanoma): 3.5 µM
TGI (SK-MEL-2 melanoma): 8.96 µM
GI50 (SK-MEL-28 melanoma): 1.82 µM
TGI (SK-MEL-28 melanoma): 3.47 µM
GI50 (SK-MEL-5 melanoma): 1.64 µM
TGI (SK-MEL-5 melanoma): 3.06 µM
GI50 (SK-OV-3 ovarian): 3.1 µM
TGI (SK-OV-3 ovarian): 9.44 µM
GI50 (SN12C renal): 1.9 µM
TGI (SN12C renal): 4.31 µM
GI50 (SNB-19 CNS): 3.79 µM
TGI (SNB-19 CNS): 15.1 µM
GI50 (SNB-75 CNS): 7.24 µM
TGI (SNB-75 CNS): 22 µM
GI50 (SR leukemia): 0.335 µM
TGI (SR leukemia): 2.9 µM
GI50 (SW-620 colon): 1.47 µM
TGI (SW-620 colon): 3.04 µM
GI50 (T-47D breast): 4.93 µM
TGI (T-47D breast): 19.9 µM
GI50 (TK-10 renal): 2.83 µM
TGI (TK-10 renal): 9.06 µM
GI50 (U251 CNS): 1.92 µM
TGI (U251 CNS): 4.44 µM
GI50 (UACC-257 melanoma): 2 µM
TGI (UACC-257 melanoma): 5.16 µM
GI50 (UACC-62 melanoma): 1.69 µM
TGI (UACC-62 melanoma): 3.42 µM
GI50 (UO-31 renal): 1.7 µM
TGI (UO-31 renal): 3.92 µM

— PubChem BioAssay (NCI)
